Read-outs that look alike come from different tables or passages of the source.
Columns and labels:
integrins = details: cited from earlier work
[1] = tested on: human lung fibroblasts (HFL-1 cells); assay: Antisense transfection: thrombin-induced proliferation of HFL-1 cells; format: cell-based; details: thrombin-treated cells
Experimental: Thrombin stimulates proliferation of human lung fibroblasts. Thrombin-treated human lung fibroblasts (HFL-1 cells) proliferated 53% in response to thrombin. 24 hours before treatment with thrombin, HFL-1 cells were treated with an LID complex comprising [K]16-peptide 6, lipofectin and a 20-mer antisense oligonucleotide directed against the thrombin receptor PAR-1 in the optimal ratio and mixing order prepared as described in the Materials and Methods section and the Examples above. The antisense oligonucleotide-containing complex was in contact with the cells for 4 hours. 24 hours after the start of the treatment with the complex, treatment with thrombin was carried out.

| Substance | integrin specificity (integrins) | proliferation in response to thrombin [1] [%] | integrin specificity (integrins; listed as peptide 5) |
| --- | --- | --- | --- |
| GACRGDMFGCA [Peptide 1] | has affinity for α5 and αv integrins but is non-specific |  |  |
| GACRRETAWACG [Peptide 6] | α5β1-specific |  |  |
| thrombin |  | 53 |  |
| GACDCRGDCFCA [Peptide 5] | Peptide 5 (αv) |  | has high affinity for integrin αv but is not αv-specific |

— US6458026B1, “Integrin-targeting vectors having transfection activity” (ICH Productions Limited, priority 1997, dated 2002)
